Test results taken from patent publication US9580449B2, “Compositions and methods for the production of pyrimidine and pyridine compounds with BTK inhibitory activity” (Merck Patent GmbH, priority 2011, dated 2017).

molecular target: full-length human BTK (Homo sapiens (Human), UniProt Q06187); assay: BTK IC50 enzyme assay (microfluidic off-chip mobility shift kinase assay); type: biochemical; conditions: incubated for 90 min. at 27 C; read-out: Time Dependent BTK Enzyme Assay IC50
Summary of the method: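 Off-chip microfluidic mobility shift assay on full-length human BTK; substrate-to-product conversion measured by charge/mass separation of phosphorylated peptide after reaction stop.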

Sequence of full-length human BTK (Q06187 whole entry): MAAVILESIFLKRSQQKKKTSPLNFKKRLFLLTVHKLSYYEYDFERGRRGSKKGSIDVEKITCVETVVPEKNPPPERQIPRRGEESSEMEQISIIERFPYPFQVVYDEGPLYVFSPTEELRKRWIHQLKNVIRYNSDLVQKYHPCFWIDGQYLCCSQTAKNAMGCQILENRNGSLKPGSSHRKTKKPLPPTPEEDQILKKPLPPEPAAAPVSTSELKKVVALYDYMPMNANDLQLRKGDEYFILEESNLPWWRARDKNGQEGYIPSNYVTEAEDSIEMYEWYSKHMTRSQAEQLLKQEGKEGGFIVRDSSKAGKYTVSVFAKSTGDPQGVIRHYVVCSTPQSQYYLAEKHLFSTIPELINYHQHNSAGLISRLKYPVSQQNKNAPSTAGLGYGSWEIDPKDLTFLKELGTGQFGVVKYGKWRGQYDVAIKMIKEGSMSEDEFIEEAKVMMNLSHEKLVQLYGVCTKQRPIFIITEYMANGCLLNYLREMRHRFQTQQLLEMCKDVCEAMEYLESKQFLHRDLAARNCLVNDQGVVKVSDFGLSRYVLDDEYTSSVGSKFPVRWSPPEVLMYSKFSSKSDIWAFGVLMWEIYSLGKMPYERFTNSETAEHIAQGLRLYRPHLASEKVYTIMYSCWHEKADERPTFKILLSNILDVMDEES

Row | Compound | IC50
1 | C=CC(=O)N1CC[C@@H](Oc2ncnc(N)c2-c2ccc(Oc3ccccc3)cc2)C1 [A19, (R)-1-(3-((6-amino-5-(4-phenoxyphenyl)pyrimidin-4-yl)oxy)pyrrolidin-1-yl)prop-2-en-1-one] | < 0.1 µM
2 | C/C=C/C(=O)N1CCC(CNc2ncnc(N)c2-c2ccc(Oc3ccccc3)cc2)CC1 [A13, (E)-1-(4-(((6-amino-5-(4-phenoxyphenyl)pyrimidin-4-yl)amino)methyl)piperidin-1-yl)but-2-en-1-one] | > 1 µM
3 | C=CS(=O)(=O)Nc1cccc(Oc2ncnc(N)c2-c2ccc(Oc3ccccc3)cc2)c1 [A58, N-(3-((6-amino-5-(4-phenoxyphenyl)pyrimidin-4-yl)oxy)phenyl)ethenesulfonamide] | < 0.1 µM
4 | C=CC(=O)N1CC(CCNc2ncnc(N)c2-c2ccc(Oc3ccccc3)cc2)C1 [A103, 1-(3-(2-((6-amino-5-(4-phenoxyphenyl)pyrimidin-4-yl)amino)ethyl)azetidin-1-yl)prop-2-en-1-one] | < 1 µM
5 | C=CC(=O)N1CCC(CNc2ncnc(N)c2-c2ccc(C(=O)Nc3ccccc3)cc2)C1 (stereo not drawn) [A155, 4-(4-(((1-acryloylpyrrolidin-3-yl)methyl)amino)-6-aminopyrimidin-5-yl)-N-phenylbenzamide] | > 1 µM
6 | CN(C)C/C=C/C(=O)Nc1cccc(-c2cnccc2Oc2ccc(Oc3ccccc3)cc2)c1 [A282, (E)-4-(dimethylamino)-N-(3-(4-(4-phenoxyphenoxy)pyridin-3-yl)phenyl)but-2-enamide] | < 0.1 µM
7 | Nc1ncnc(Oc2cccc(NC(=O)CCl)c2)c1-c1ccc(Oc2ccccc2)cc1 [A342, N-{3-[6-Amino-5-(4-phenoxy-phenyl)-pyrimidin-4-yloxy]-phenyl}-2-chloroacetamide] | < 0.1 µM
8 | C#CC(=O)N1CC[C@@H](CNc2ncnc(N)c2-c2cnn(Cc3ccccc3)c2)[C@H](O)C1 [A110, 1-((3S,4S)-4-(((6-amino-5-(1-benzyl-1H-pyrazol-4-yl)pyrimidin-4-yl)amino)methyl)-3-hydroxypiperidin-1-yl)prop-2-yn-1-one] | < 0.1 µM
9 | C=CC(=O)Nc1cccc(Oc2ncnc(N)c2-c2ccc(F)c(OC)c2)c1 [A277, N-(3-((6-amino-5-(4-fluoro-3-methoxyphenyl)pyrimidin-4-yl)oxy)phenyl)acrylamide] | < 0.1 µM
10 | C=CC(=O)N1CCC[C@@H](Nc2ncnc(N)c2-c2cnn(Cc3ccccc3)c2)C1 [A180, (R)-1-(3-((6-amino-5-(1-benzyl-1H-pyrazol-4-yl)pyrimidin-4-yl)amino)piperidin-1-yl)prop-2-en-1-one] | < 1 µM
11 | Nc1ncnc(NCC2CCN(C(=O)/C=C/CN3CC(F)(F)C3)CC2)c1-c1ccc(Oc2ccccc2)cc1 [A219, (E)-1-(4-(((6-amino-5-(4-phenoxyphenyl)pyrimidin-4-yl)amino)methyl)piperidin-1-yl)-4-(3,3-difluoroazetidin-1-yl)but-2-en-1-one] | > 1 µM
12 | C=CC(=O)N1CC[C@@H](CNc2ncnc(N)c2-c2cnn(Cc3ccccc3)c2)[C@H](O)C1 [A109, 1-((3S,4S)-4-(((6-amino-5-(1-benzyl-1H-pyrazol-4-yl)pyrimidin-4-yl)amino)methyl)-3-hydroxypiperidin-1-yl)prop-2-en-1-one] | < 0.1 µM
13 | C=CC(=O)N1CCC(CNc2ncnc(N)c2-c2ccc(Oc3ccc(F)cc3)cc2)CC1 [A80] | < 1 µM
14 | C=CC(=O)N1CC[C@@H](O)[C@H](Nc2ncnc(N)c2-c2ccc(Oc3ccccc3)cc2)C1 (racemic) [A210, 1-((3R,4R)-3-((6-amino-5-(4-phenoxyphenyl)pyrimidin-4-yl)amino)-4-hydroxypiperidin-1-yl)prop-2-en-1-one] | < 1 µM
15 | Nc1ncnc(NCC2CCN(c3cccc(Cl)n3)CC2)c1-c1ccc(Oc2ccccc2)cc1 [A337, N4-((1-(6-chloropyridin-2-yl)piperidin-4-yl)methyl)-5-(4-phenoxyphenyl)pyrimidine-4,6-diamine] | > 1 µM
16 | CC=CC(=O)[C@H]1CCC[C@@H](Nc2ncnc(N)c2-c2ccc(Oc3ccccc3)cc2)C1 [A146, 1-((1S,3R)-3-(6-Amino-5-(4-phenoxyphenyl)-pyrimidin-4-ylamino)-cyclohexyl)-but-2-en-1-one] | < 0.1 µM
17 | C=CC(=O)N1CCC(CNc2ccnc(N)c2-c2ccc(Oc3ccccc3)cc2)CC1 [A76, 1-(4-(((2-amino-3-(4-phenoxyphenyl)pyridin-4-yl)amino)methyl)piperidin-1-yl)prop-2-en-1-one] | < 1 µM
18 | C=CC(=O)N1CCC(CNc2ncnc(N)c2-c2ccc(Oc3ccccc3)cc2)(C(=O)O)CC1 [A216, 1-acryloyl-4-(((6-amino-5-(4-phenoxyphenyl)pyrimidin-4-yl)amino)methyl)piperidine-4-carboxylic acid] | < 0.1 µM
19 | C=CC(=O)[C@H]1CCC[C@H](Nc2ncnc(N)c2-c2ccc(Oc3ccccc3)cc2)C1 [A143, 1-((1S,3S)-3-(6-Amino-5-(4-phenoxyphenyl)-pyrimidin-4-ylamino)-cyclohexyl)-propenone] | < 0.1 µM
20 | C=CC(=O)NC1CC2(C1)CC(Nc1ncnc(N)c1-c1ccc(Oc3ccccc3)cc1)C2 (stereo not drawn) [A122, N-(6-((6-amino-5-(4-phenoxyphenyl)pyrimidin-4-v)amino)spiro[3.3]heptan-2-yl)acrylamide] | > 1 µM

Row | Compound | IC50
21 | C=CC(=O)N1C[C@@H](F)C[C@H](Nc2ncnc(N)c2-c2ccc(Oc3ccccc3)cc2)C1 [A204, 1-((3S,5S)-3-((6-amino-5-(4-phenoxyphenyl)pyrimidin-4-yl)amino)-5-fluoropiperidin-1-yl)prop-2-en-1-one] | < 0.1 µM
22 | C=CC(=O)N1CC[C@@H](CNc2ncnc(N)c2-c2ccc(Oc3cccc(C(F)(F)F)c3)cc2)[C@H](O)C1 [A170, 1-((3S,4S)-4-(((6-amino-5-(4-(3-(trifluoromethyl)phenoxy)phenyl)pyrimidin-4-yl)amino)methyl)-3-hydroxypiperidin-1-yl)prop-2-en-1-one] | < 0.1 µM
23 | CCC(=O)Nc1cccc(Oc2ncnc(N)c2-c2ccc(OCc3ccccc3)cc2)c1 [A346, N-{3-[6-Amino-5-(4-benzyloxy-phenyl)-pyrimidin-4-yloxy]-phenyl}-propionamide] | < 0.1 µM
24 | C=CC(=O)Nc1cccc(Oc2ncnc(N)c2-c2cnn(Cc3ccccc3F)c2)c1 [A184, N-(3-((6-amino-5-(1-(2-fluorobenzyl)-1H-pyrazol-4-yl)pyrimidin-4-yl)oxy)phenyl)acrylamide] | < 0.1 µM
25 | C=CC(=O)N1CCC=C(c2c(N)ncnc2Oc2ccc(Oc3ccccc3)cc2)C1 [A279, 1-(3-(4-amino-6-(4-phenoxyphenoxy)pyrimidin-5-yl)-5,6-dihydropyridin-1(2H)-yl)prop-2-en-1-one] | < 0.1 µM
26 | Nc1cccc(Oc2ccnc(N)c2-c2ccc(Oc3ccccc3)cc2)c1 [A313, 4-(3-aminophenoxy)-3-(4-phenoxyphenyl)pyridin-2-amine] | > 1 µM
27 | C=CC(=O)Nc1cccc(Oc2ncnc(N)c2-c2cnn(Cc3cccc(C)c3)c2)c1 [A190, N-(3-((6-amino-5-(1-(3-methylbenzyl)-1H-pyrazol-4-yl)pyrimidin-4-yl)oxy)phenyl)acrylamide] | < 0.1 µM
28 | C=CC(=O)N1CCCC(CNc2ncnc(N)c2-c2ccc(Oc3ccccc3)cc2)C1 (stereo not drawn) [A286, 1-(3-(((6-amino-5-(4-phenoxyphenyl)pyrimidin-4-yl)amino)methyl)piperidin-1-yl)prop-2-en-1-one] | < 1 µM
29 | C=CC(=O)Nc1ccc(Oc2ccncc2-c2ccc(Oc3ccccc3)cc2)cc1 [A297, N-(4-((3-(4-phenoxyphenyl)pyridin-4-yl)oxy)phenyl)acrylamide] | > 1 µM
30 | C=CC(=O)Nc1cccc(Oc2ncnc(N)c2-c2cc(F)c(OCc3ccccc3)cc2F)c1 [A339, N-(3-((6-amino-5-(4-(benzyloxy)-2,5-difluorophenyl)pyrimidin-4-yl)oxy)phenyl)acrylamide] | < 0.1 µM
31 | C=CC(=O)N1CCC(CNc2ncnc(N)c2-c2ccc(OC3CCCCC3)cc2)CC1 [A99, 1-(4-(((6-amino-5-(4-(cyclohexyloxy)phenyl)pyrimidin-4-yl)amino)methyl)piperidin-1-yl)prop-2-en-1-one] | < 1 µM
32 | Nc1ncnc(Oc2ccc(Oc3ccccc3)cc2)c1-c1cccc(NC(=O)/C=C/CN2CCCC(F)(F)C2)c1 [A301, (E)-N-(3-(4-amino-6-(4-phenoxyphenoxy)pyrimidin-5-yl)phenyl)-4-(3,3-difluoropiperidin-1-yl)but-2-enamide] | > 1 µM
33 | Nc1ncnc(OC2CC3(C2)CN(C(=O)/C=C/CN2CC(F)C2)C3)c1-c1ccc(Oc2ccccc2)cc1 [A222, (E)-1-(6-((6-amino-5-(4-phenoxyphenyl)pyrimidin-4-yl)oxy)-2-azaspiro[3.3]heptan-2-yl)-4-(3-fluoroazetidin-1-yl)but-2-en-1-one] | < 0.1 µM
34 | C=CC(=O)Nc1cccc(Oc2ncnc(N)c2-c2cnn(Cc3ccc(C#N)cc3)c2)c1 [A69, N-(3-((6-amino-5-(1-(4-cyanobenzyl)-1H-pyrazol-4-yl)pyrimidin-4-yl)oxy)phenyl)acrylamide] | < 1 µM
35 | C=CC(=O)N1CC2(CC(Nc3ncnc(N)c3-c3cnn(Cc4ccccc4)c3)C2)C1 [A107, 1-(6-((6-amino-5-(1-benzyl-1H-pyrazol-4-yl)pyrimidin-4-yl)amino)-2-azaspiro[3.3]heptan-2-yl)prop-2-en-1-one] | < 1 µM
36 | CN(C)C/C=C/C(=O)N1CC[C@@H](Nc2ncnc(N)c2-c2ccc(Oc3ccccc3)cc2)C1 [A73, (R,E)-1-(3-((6-amino-5-(4-phenoxyphenyl)pyrimidin-4-yl)amino)pyrrolidin-1-yl)-4-(dimethylamino)but-2-en-1-one] | < 1 µM
37 | C=CC(=O)Nc1cncc(Oc2ncnc(N)c2-c2ccc(Oc3ccccc3)cc2)c1 [A60, N-(5-((6-amino-5-(4-phenoxyphenyl)pyrimidin-4-yl)oxy)pyridin-3-yl)acrylamide] | < 0.1 µM
38 | C=CC(=O)N1CCO[C@H](COc2ncnc(N)c2-c2cnn(Cc3ccccc3)c2)C1 [A193, (S)-1-(2-(((6-amino-5-(1-benzyl-1H-pyrazol-4-yl)pyrimidin-4-yl)oxy)methyl)morpholino)prop-2-en-1-one] | > 1 µM
39 | CN(C)C/C=C/C(=O)N1CCCC(Nc2ncnc(N)c2-c2ccc(Oc3ccccc3)cc2)C1 (stereo not drawn) [A160, (E)-1-(3-((6-amino-5-(4-phenoxyphenyl)pyrimidin-4-yl)amino)piperidin-1-yl)-4-(dimethylamino)but-2-en-1-one] | < 1 µM
